pIC50: −log10 of the molar value.
System: Hs578T complex spheroid growth, percent test/control
Assay: Anticancer human tumor Hs578T cell line growth inhibition [AhR];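 note: luminescent viability signal as a proxy for spheroid growth; spheroids exposed to agents for one week after three days of growth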
Conditions: for pIC50: curve of first compound; for viability, T/C: stronger effect = lower value
Outline: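 Complex tumor spheroids co-cultured with HUVEC and human MSC stroma; AhR antagonists tested in combination with standard-of-care and investigational agents. Top concentration at or near clinical Cmax (else 10 microM), half-log dilutions; growth expressed as percent test/control.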

[1] = second compound 0.1 µM, first compound 0.0316 µM
[2] = second compound 0.1 µM, first compound 0.1 µM
[3] = second compound 0.1 µM, first compound 0.316 µM
[4] = second compound 0.1 µM, first compound 1 µM
[5] = second compound 0.1 µM, first compound 3.16 µM
[6] = second compound 0.1 µM, first compound 10 µM
[7] = second compound 0.316 µM, first compound 0.0316 µM
[8] = second compound 0.316 µM, first compound 0.1 µM
[9] = second compound 0.316 µM, first compound 0.316 µM
[10] = second compound 0.316 µM, first compound 1 µM
[11] = second compound 0.316 µM, first compound 3.16 µM
[12] = second compound 0.316 µM, first compound 10 µM
[13] = second compound 1 µM, first compound 0.0316 µM
[14] = second compound 1 µM, first compound 0.1 µM
[15] = second compound 1 µM, first compound 0.316 µM
[16] = second compound 1 µM, first compound 1 µM
[17] = second compound 1 µM, first compound 3.16 µM
[18] = second compound 1 µM, first compound 10 µM
[19] = second compound 3.16 µM, first compound 0.0316 µM
[20] = second compound 3.16 µM, first compound 0.1 µM
[21] = second compound 3.16 µM, first compound 0.316 µM
[22] = second compound 3.16 µM, first compound 1 µM
[23] = second compound 3.16 µM, first compound 3.16 µM
[24] = second compound 3.16 µM, first compound 10 µM
[25] = second compound 10 µM, first compound 0.0316 µM
[26] = second compound 10 µM, first compound 0.1 µM
[27] = second compound 10 µM, first compound 0.316 µM
[28] = second compound 10 µM, first compound 1 µM
[29] = second compound 10 µM, first compound 3.16 µM
[30] = second compound 10 µM, first compound 10 µM
[31] = second compound 0.1 µM, first compound 0.00949 µM
[32] = second compound 0.1 µM, first compound 0.03 µM
[33] = second compound 0.1 µM, first compound 0.0949 µM
[34] = second compound 0.1 µM, first compound 0.3 µM
[35] = second compound 0.316 µM, first compound 0.00949 µM
[36] = second compound 0.316 µM, first compound 0.03 µM
[37] = second compound 0.316 µM, first compound 0.0949 µM
[38] = second compound 0.316 µM, first compound 0.3 µM
[39] = second compound 1 µM, first compound 0.00949 µM
[40] = second compound 1 µM, first compound 0.03 µM
[41] = second compound 1 µM, first compound 0.0949 µM
[42] = second compound 1 µM, first compound 0.3 µM
[43] = second compound 3.16 µM, first compound 0.00949 µM
[44] = second compound 3.16 µM, first compound 0.03 µM
[45] = second compound 3.16 µM, first compound 0.0949 µM
[46] = second compound 3.16 µM, first compound 0.3 µM
[47] = second compound 10 µM, first compound 0.00949 µM
[48] = second compound 10 µM, first compound 0.03 µM
[49] = second compound 10 µM, first compound 0.0949 µM
[50] = second compound 10 µM, first compound 0.3 µM

SMILES: CC1(C)CCC(CN2CCN(c3ccc(C(=O)NS(=O)(=O)c4ccc(NCC5CCOCC5)c([N+](=O)[O-])c4)c(Oc4cnc5[nH]ccc5c4)c3)CC2)=C(c2ccc(Cl)cc2)C1 + Cc1cncc(-c2nc(NCCc3c[nH]c4ccccc34)c3ncn(C(C)C)c3n2)c1
- pIC50 (second compound 0.1 µM): < 5.00
- pIC50 (second compound 0.316 µM): < 5.00
- pIC50 (second compound 1 µM): < 5.00
- pIC50 (second compound 3.16 µM): < 5.00
- pIC50 (second compound 10 µM): > 7.50
- viability, T/C [1]: 117%
- viability, T/C [2]: 118%
- viability, T/C [3]: 115%
- viability, T/C [4]: 94.8%
- viability, T/C [5]: 95.9%
- viability, T/C [6]: 82.6%
- viability, T/C [7]: 117%
- viability, T/C [8]: 118%
- viability, T/C [9]: 112%
- viability, T/C [10]: 109%
- viability, T/C [11]: 105%
- viability, T/C [12]: 97.4%
- viability, T/C [13]: 113%
- viability, T/C [14]: 111%
- viability, T/C [15]: 109%
- viability, T/C [16]: 108%
- viability, T/C [17]: 111%
- viability, T/C [18]: 92.8%
- viability, T/C [19]: 49.6%
- viability, T/C [20]: 65.6%
- viability, T/C [21]: 65.5%
- viability, T/C [22]: 56.4%
- viability, T/C [23]: 69.2%
- viability, T/C [24]: 75.2%
- viability, T/C [25]: 3.98%
- viability, T/C [26]: 3.8%
- viability, T/C [27]: 4.95%
- viability, T/C [28]: 5.32%
- viability, T/C [29]: 4.95%
- viability, T/C [30]: 8.06%

SMILES: CC1COCCN1c1cc(C2(S(C)(=N)=O)CC2)nc(-c2ccnc3[nH]ccc23)n1 (stereo not given) + Cc1cncc(-c2nc(NCCc3c[nH]c4ccccc34)c3ncn(C(C)C)c3n2)c1
- pIC50 (second compound 0.1 µM): < 5.00
- pIC50 (second compound 0.316 µM): < 5.00
- pIC50 (second compound 1 µM): < 5.00
- pIC50 (second compound 3.16 µM): < 5.00
- pIC50 (second compound 10 µM): > 7.50
- viability, T/C [1]: 120%
- viability, T/C [2]: 115%
- viability, T/C [3]: 111%
- viability, T/C [4]: 102%
- viability, T/C [5]: 92.1%
- viability, T/C [6]: 66.2%
- viability, T/C [7]: 119%
- viability, T/C [8]: 119%
- viability, T/C [9]: 116%
- viability, T/C [10]: 113%
- viability, T/C [11]: 105%
- viability, T/C [12]: 60.4%
- viability, T/C [13]: 106%
- viability, T/C [14]: 107%
- viability, T/C [15]: 118%
- viability, T/C [16]: 111%
- viability, T/C [17]: 98.2%
- viability, T/C [18]: 62.5%
- viability, T/C [19]: 62.5%
- viability, T/C [20]: 57.2%
- viability, T/C [21]: 59.1%
- viability, T/C [22]: 64.5%
- viability, T/C [23]: 55.3%
- viability, T/C [24]: 43.3%
- viability, T/C [25]: 8.31%
- viability, T/C [26]: 8.78%
- viability, T/C [27]: 9.14%
- viability, T/C [28]: 8%
- viability, T/C [29]: 9.08%
- viability, T/C [30]: 11.8%

SMILES: CCN(c1cc(-c2ccc(CN3CCOCC3)cc2)cc(C(=O)NCc2c(C)cc(C)[nH]c2=O)c1C)C1CCOCC1 + Cc1cncc(-c2nc(NCCc3c[nH]c4ccccc34)c3ncn(C(C)C)c3n2)c1
- pIC50 (second compound 0.1 µM): < 5.52
- pIC50 (second compound 0.316 µM): < 5.52
- pIC50 (second compound 1 µM): < 5.52
- pIC50 (second compound 3.16 µM): > 8.02
- pIC50 (second compound 10 µM): > 8.02
- viability, T/C [31]: 111%
- viability, T/C [32]: 95.9%
- viability, T/C [33]: 101%
- viability, T/C [34]: 107%
- viability, T/C (second compound 0.1 µM, first compound 0.949 µM): 94.4%
- viability, T/C (second compound 0.1 µM, first compound 3 µM): 106%
- viability, T/C [35]: 111%
- viability, T/C [36]: 99.9%
- viability, T/C [37]: 106%
- viability, T/C [38]: 96.6%
- viability, T/C (second compound 0.316 µM, first compound 0.949 µM): 99.5%
- viability, T/C (second compound 0.316 µM, first compound 3 µM): 90.7%
- viability, T/C [39]: 103%
- viability, T/C [40]: 102%
- viability, T/C [41]: 101%
- viability, T/C [42]: 93.5%
- viability, T/C (second compound 1 µM, first compound 0.949 µM): 105%
- viability, T/C (second compound 1 µM, first compound 3 µM): 93.3%
- viability, T/C [43]: 49.8%
- viability, T/C [44]: 46.4%
- viability, T/C [45]: 51.5%
- viability, T/C [46]: 48%
- viability, T/C (second compound 3.16 µM, first compound 0.949 µM): 46%
- viability, T/C (second compound 3.16 µM, first compound 3 µM): 51.7%
- viability, T/C [47]: 6.41%
- viability, T/C [48]: 5.56%
- viability, T/C [49]: 7.45%
- viability, T/C [50]: 5.08%
- viability, T/C (second compound 10 µM, first compound 0.949 µM): 5.95%
- viability, T/C (second compound 10 µM, first compound 3 µM): 3.67%

SMILES: Nc1ncn(C2CC(O)C(CO)S2)c(=O)n1 (stereo not given) + Cc1cncc(-c2nc(NCCc3c[nH]c4ccccc34)c3ncn(C(C)C)c3n2)c1
- pIC50 (second compound 0.1 µM): < 6.52
- pIC50 (second compound 0.316 µM): < 6.52
- pIC50 (second compound 1 µM): < 6.52
- pIC50 (second compound 3.16 µM): < 6.52
- pIC50 (second compound 10 µM): > 9.02
- viability, T/C (second compound 0.1 µM, first compound 0.000949 µM): 110%
- viability, T/C (second compound 0.1 µM, first compound 0.003 µM): 119%
- viability, T/C [31]: 117%
- viability, T/C [32]: 108%
- viability, T/C [33]: 104%
- viability, T/C [34]: 92.9%
- viability, T/C (second compound 0.316 µM, first compound 0.000949 µM): 116%
- viability, T/C (second compound 0.316 µM, first compound 0.003 µM): 114%
- viability, T/C [35]: 115%
- viability, T/C [36]: 107%
- viability, T/C [37]: 108%
- viability, T/C [38]: 93.9%
- viability, T/C (second compound 1 µM, first compound 0.000949 µM): 92.2%
- viability, T/C (second compound 1 µM, first compound 0.003 µM): 95.3%
- viability, T/C [39]: 91%
- viability, T/C [40]: 82.4%
- viability, T/C [41]: 88.8%
- viability, T/C [42]: 86.4%
- viability, T/C (second compound 3.16 µM, first compound 0.000949 µM): 46.2%
- viability, T/C (second compound 3.16 µM, first compound 0.003 µM): 54.2%
- viability, T/C [43]: 55.5%
- viability, T/C [44]: 49.4%
- viability, T/C [45]: 47%
- viability, T/C [46]: 55%
- viability, T/C (second compound 10 µM, first compound 0.000949 µM): 14.1%
- viability, T/C (second compound 10 µM, first compound 0.003 µM): 7.61%
- viability, T/C [47]: 7.86%
- viability, T/C [48]: 8.27%
- viability, T/C [49]: 7.59%
- viability, T/C [50]: 7.47%

Reference: PubChem BioAssay AID1919010 (Molecular Pharmacology Branch, DTP, NCI, 2023)
